Assay results reported in ChEMBL document CHEMBL1201862, “PubChem BioAssay data set” (2004).
Activity calls are given as the source filed them.

Experiments:
[1] = HEp-2 cell cytotoxicity, dose response, cytotoxicity control for RSV inhibitor project, HTS (AID 2410); format: functional; details: human respiratory syncytial virus
Caspase-3 [2] = biological target: T1, Caspase-3 (Homo sapiens, UniProt P42574); format: functional
T1 sequence (P42574 whole entry): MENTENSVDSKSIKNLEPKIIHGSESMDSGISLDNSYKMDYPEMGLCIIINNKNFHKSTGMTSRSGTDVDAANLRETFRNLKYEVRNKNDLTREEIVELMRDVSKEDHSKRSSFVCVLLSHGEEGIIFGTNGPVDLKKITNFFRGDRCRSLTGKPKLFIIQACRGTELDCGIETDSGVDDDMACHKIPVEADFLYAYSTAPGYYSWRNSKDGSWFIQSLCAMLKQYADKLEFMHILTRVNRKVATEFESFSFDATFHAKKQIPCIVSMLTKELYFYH

[3] = biological target: T2, Sentrin-specific protease 7 (Homo sapiens, UniProt Q9BQF6); format: functional;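 also: Luminescence-based dose-response confirmation of ultra-high-throughput screening hits, measuring inhibition of SENP7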
T2 sequence (Q9BQF6 whole entry): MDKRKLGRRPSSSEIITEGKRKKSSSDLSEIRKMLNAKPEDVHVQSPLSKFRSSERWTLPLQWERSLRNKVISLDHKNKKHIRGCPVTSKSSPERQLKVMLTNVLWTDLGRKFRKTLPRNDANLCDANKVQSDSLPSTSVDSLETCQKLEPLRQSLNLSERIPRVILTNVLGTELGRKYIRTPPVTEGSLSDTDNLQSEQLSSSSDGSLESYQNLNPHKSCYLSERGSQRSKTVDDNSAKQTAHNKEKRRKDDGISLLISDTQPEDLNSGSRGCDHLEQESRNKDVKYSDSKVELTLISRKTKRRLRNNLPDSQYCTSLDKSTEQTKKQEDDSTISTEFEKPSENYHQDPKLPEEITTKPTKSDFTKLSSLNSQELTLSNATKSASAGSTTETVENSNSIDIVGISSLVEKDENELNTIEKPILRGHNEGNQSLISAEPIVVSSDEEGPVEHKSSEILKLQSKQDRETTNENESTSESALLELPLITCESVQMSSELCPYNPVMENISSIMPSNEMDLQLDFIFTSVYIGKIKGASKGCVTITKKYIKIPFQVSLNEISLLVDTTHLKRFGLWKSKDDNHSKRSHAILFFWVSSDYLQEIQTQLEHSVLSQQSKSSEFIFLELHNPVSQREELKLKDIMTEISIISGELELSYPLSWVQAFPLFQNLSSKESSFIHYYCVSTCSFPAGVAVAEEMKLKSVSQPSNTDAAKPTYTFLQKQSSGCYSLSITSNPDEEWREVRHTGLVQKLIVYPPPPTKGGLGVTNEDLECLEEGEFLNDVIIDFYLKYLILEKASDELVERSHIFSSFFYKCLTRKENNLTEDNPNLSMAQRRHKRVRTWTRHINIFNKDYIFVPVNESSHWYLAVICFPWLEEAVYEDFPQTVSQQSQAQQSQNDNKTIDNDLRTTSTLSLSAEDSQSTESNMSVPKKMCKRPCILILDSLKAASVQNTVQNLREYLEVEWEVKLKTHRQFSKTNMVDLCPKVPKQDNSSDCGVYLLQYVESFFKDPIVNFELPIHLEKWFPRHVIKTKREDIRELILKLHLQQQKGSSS

[4] = biological target: T3, Sentrin-specific protease 6 (Homo sapiens, UniProt Q9GZR1); format: functional
T3 sequence (Q9GZR1 whole entry): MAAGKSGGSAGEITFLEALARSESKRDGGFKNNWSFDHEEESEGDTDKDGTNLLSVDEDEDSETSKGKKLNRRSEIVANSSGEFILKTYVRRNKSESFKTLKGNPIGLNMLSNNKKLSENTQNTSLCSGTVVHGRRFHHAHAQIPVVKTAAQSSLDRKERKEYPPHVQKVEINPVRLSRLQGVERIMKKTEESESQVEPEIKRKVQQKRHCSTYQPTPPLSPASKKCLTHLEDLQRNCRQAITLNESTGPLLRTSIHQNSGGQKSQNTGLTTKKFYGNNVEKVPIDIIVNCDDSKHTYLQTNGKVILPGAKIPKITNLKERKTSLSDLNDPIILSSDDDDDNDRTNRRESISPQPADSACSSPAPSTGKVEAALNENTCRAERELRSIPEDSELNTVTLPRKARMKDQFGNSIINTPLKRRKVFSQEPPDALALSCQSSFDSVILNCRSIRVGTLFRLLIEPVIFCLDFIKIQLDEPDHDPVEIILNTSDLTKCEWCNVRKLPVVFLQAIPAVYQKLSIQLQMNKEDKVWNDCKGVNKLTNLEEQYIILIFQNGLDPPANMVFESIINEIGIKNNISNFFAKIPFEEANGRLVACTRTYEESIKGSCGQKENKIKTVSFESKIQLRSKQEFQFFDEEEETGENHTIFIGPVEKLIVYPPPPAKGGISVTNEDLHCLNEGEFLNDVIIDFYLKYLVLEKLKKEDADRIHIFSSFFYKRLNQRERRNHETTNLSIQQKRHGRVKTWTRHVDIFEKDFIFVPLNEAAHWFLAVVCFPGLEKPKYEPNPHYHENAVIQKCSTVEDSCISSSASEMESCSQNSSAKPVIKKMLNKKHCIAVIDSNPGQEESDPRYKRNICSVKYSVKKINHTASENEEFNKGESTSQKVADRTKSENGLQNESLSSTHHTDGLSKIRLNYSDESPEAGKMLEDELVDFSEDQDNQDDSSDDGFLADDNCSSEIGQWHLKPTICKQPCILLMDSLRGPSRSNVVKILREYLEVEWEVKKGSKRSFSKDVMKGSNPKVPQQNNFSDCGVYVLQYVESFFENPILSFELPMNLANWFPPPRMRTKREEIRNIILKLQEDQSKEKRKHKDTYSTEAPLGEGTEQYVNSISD

[5] = biological target: T4, Sentrin-specific protease 8 (Homo sapiens, UniProt Q96LD8); format: functional;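 also: luminescence read-out of SENP8 inhibition, dose-response confirmation following an ultra-high-throughput screen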
T4 sequence (Q96LD8 whole entry): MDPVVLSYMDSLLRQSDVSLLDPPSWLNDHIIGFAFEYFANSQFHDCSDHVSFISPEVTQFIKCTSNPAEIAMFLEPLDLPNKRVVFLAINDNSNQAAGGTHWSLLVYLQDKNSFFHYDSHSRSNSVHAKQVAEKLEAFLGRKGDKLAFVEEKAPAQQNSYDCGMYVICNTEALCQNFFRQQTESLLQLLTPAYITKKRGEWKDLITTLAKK

[6] = biological target: T4, Sentrin-specific protease 8; assay: SENP8 protease inhibitors, SAR follow-up, biochemical, luminescence (AID 504501); format: functional
Caspase-3 [7] = biological target: T1, Caspase-3; assay: SAR Analysis of small molecule inhibitors of Sentrin-specific proteases (SENPs) using a Caspase-3 Selectivity assay. [Related pubchem assays (depositor defined):AID2540, AID2599, AID434973, AID489001]; format: functional
[8] = biological target: T3, Sentrin-specific protease 6; assay: SAR Analysis of small molecule inhibitors of Sentrin-specific protease 6 (SENP6) using a Luminescent assay. [Related pubchem assays (depositor defined):AID2582, AID2599]; format: functional
[9] = biological target: T2, Sentrin-specific protease 7; assay: SENP7 protease inhibitors, SAR follow-up, biochemical, luminescence (AID 504497); format: functional
BJ [10] = assay: cytotoxicity toward BJ-TERT fibroblasts, dose response, cell-based, RAS-independent, luminescence (AID 1933); format: functional; details: Homo sapiens
BJ [11] = assay: cells; format: functional, cell-based; details: Homo sapiens
BJ [12] = assay: cytotoxicity toward BJ-TERT-LT-ST fibroblasts, dose response, cell-based, RAS-independent, luminescence (AID 1935); format: functional; details: Homo sapiens;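 also: BJ fibroblasts immortalized with TERT plus LT and ST oncogenes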
[13] = cytotoxicity toward DRD oncogenic fibroblasts, dose response, cell-based, non-viral oncogenic, luminescence (AID 1934); format: functional; details: Homo sapiens
BJ [14] = assay: cytotoxicity toward Ras-transformed BJeLR fibroblasts, dose response, cell-based, alamar blue fluorescence, cherrypicked samples (AID 2631); format: functional; details: Homo sapiens;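 also: confirmatory dose-response assay in RAS-dependent BJ fibroblasts engineered with TERT, LT and ST, with cytotoxicity read by fluorescence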
[15] = growth suppression of PTEN-null colon cells, dose response, cell-based, HCT116 PTEN knockout (AID 1047); format: functional;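 also: HCT116 colon tumor cells with PTEN knocked out; cells exposed to compound for 60 hours before readout; potency for loss of cell viability measured by luminescence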
[16] = growth suppression of beta-catenin-knockout colon cells, dose response, cell-based, HCT116, human colon tumor (AID 1045); format: functional;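 also: HCT116 colon tumor cells with beta catenin knocked out; cells exposed to compound for 60 hours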
[17] = biological target: T5, Replicative DNA helicase DnaB (Mycobacterium tuberculosis, UniProt P9WMR3); assay: DnaB intein splicing inhibitors, dose response, biochemical, cell-free fluorescence (AID 449749); format: functional
T5 sequence (P9WMR3 whole entry): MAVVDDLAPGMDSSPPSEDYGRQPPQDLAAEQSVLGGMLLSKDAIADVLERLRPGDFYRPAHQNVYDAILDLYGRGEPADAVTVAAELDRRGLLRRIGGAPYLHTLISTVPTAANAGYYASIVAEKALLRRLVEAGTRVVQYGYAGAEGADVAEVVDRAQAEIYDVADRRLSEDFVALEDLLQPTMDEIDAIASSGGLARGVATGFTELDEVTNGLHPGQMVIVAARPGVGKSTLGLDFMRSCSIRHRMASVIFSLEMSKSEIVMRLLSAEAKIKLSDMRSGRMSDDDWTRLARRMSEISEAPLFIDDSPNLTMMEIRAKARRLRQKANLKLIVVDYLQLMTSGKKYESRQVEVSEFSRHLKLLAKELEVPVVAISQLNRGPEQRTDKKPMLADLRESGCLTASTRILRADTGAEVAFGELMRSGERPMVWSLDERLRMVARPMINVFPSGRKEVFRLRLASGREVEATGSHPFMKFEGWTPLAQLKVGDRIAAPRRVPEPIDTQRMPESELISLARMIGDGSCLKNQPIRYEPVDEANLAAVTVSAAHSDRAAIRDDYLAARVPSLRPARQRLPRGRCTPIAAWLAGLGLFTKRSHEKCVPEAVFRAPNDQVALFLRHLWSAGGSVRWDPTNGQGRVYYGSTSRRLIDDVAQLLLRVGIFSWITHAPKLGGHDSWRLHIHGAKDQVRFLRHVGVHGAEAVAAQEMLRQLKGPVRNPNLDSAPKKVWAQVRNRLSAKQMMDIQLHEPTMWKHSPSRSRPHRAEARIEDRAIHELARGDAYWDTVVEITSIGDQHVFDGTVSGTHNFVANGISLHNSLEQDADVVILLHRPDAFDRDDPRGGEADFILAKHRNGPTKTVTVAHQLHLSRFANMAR

Protein RecA = biological target: T6, Protein RecA (Mycobacterium tuberculosis, UniProt P9WHJ3); assay: Fluorescence Cell-Free Homogeneous Dose Retest to Identify Inhibitors of RecA-Intein Splicing Activity. [Related pubchem assays (depositor defined):AID2097, AID2223, AID489010, AID492950]; format: functional
T6 sequence (P9WHJ3 whole entry): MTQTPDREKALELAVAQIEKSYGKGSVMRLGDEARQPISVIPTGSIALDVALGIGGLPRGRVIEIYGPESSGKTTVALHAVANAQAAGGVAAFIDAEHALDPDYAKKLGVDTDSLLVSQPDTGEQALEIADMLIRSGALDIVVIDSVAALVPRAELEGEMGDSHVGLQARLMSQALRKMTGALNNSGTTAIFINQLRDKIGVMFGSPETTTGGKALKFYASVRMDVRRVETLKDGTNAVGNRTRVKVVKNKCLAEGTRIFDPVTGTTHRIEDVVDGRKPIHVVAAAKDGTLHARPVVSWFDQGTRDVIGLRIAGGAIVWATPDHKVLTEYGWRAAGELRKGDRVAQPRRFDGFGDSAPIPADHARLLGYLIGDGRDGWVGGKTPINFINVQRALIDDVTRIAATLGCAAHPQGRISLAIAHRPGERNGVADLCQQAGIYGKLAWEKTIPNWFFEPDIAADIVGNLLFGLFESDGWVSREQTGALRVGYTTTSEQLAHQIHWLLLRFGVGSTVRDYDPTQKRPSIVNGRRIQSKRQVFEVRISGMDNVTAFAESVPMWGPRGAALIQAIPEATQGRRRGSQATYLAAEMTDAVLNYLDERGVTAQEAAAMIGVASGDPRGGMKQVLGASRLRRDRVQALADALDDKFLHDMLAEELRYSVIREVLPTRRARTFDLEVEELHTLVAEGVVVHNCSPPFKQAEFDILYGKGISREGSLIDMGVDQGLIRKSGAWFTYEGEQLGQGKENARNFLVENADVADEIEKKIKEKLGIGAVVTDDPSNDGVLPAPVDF

| Structure (SMILES) | IC50 [6] | IC50 (Caspase-3 [7]) | IC50 [8] | IC50 [9] | EC50 (BJ [10]) | EC50 (BJ [12]) | EC50 [13] | EC50 (BJ [14]) | other results |
| --- | --- | --- | --- | --- | --- | --- | --- | --- | --- |
| CCc1ccc2oc(-c3ccc(NC(C)=O)cc3)nc2c1 | 5.46 µM (active) | 7.01 µM (active) | 5.12 µM (active) | 2.09 µM (active) | – | – | – | – | CC50 [1]: 22.2 µM (active); IC50 (Caspase-3 [2]): 12.4 µM (active); IC50 [3]: 2.89 µM (active); IC50 [4]: 8.05 µM (active); IC50 [5]: 13.2 µM (active) |
| COc1cc([C@H]2c3[nH]c4ccccc4c3C[C@H]3C(=O)N4[C@@H](c5cc(OC)c(OC)c(OC)c5)c5[nH]c6ccccc6c5C[C@H]4C(=O)N23)cc(OC)c1OC | – | – | – | – | 3.48 µM (active) | 14.3 µM (inconclusive) | 5.02 µM (active) | > 133 µM (inactive) | CC50 [1]: 19.1 µM (active); EC50 (BJ [11]): > 150 µM (inconclusive) |
| CCCCc1c(C)c(C#N)c2nc3ccccc3n2c1Cl | – | – | – | – | 2.22 µM (active) | 1.75 µM (inconclusive) | 2.76 µM (active) | 0.57 µM (active) | EC50 (BJ [11]): 2.85 µM (active); EC50 [15]: 1.88 µM (active); EC50 [16]: 1.52 µM (active) |
| O=C(/C=C/c1ccc(OC2CSC2)cc1)c1ccc(Cl)cc1 | > 99 µM (inactive) | > 99 µM (inactive) | > 99 µM (inactive) | > 99 µM (inactive) | – | – | – | – | – |
| Cc1ccc(C2=NN(C(=O)CCl)C(c3ccco3)C2)o1 (stereo not given) | – | – | – | – | 3.33 µM (inconclusive) | 11.1 µM (inconclusive) | 5.27 µM (active) | 3.42 µM (active) | AC50 [17]: 30.3 µM (active); EC50 (Protein RecA): 5.58 µM (active) |
| O=C(Nc1nc2ccc(NC(=O)c3n[nH]c4c3CCc3ccccc3-4)cc2s1)c1ccccc1 | > 99 µM (inactive) | > 99 µM (inactive) | > 99 µM (inactive) | > 99 µM (inactive) | – | – | – | – | – |
| Fc1cc(C(F)(F)F)ccc1-c1nc(/C=C/c2ccccc2)no1 | > 99 µM (inactive) | > 99 µM (inactive) | > 99 µM (inactive) | > 99 µM (inactive) | – | – | – | – | – |
